Measurements reported in paper PMC10052977, “α,ω-Diacyl-Substituted Analogues of Natural and Unnatural Polyamines: Identification of Potent Bactericides That Selectively Target Bacterial Membranes” (International Journal of Molecular Sciences, 2023).

Experiments:
[1] = tested on: Pseudomonas aeruginosa PAO1 or ATCC 27853; test: MIC, broth dilution (CA-SFM); assay type: cell-based; settings: mean (n = 3)
[2] = tested on: Staphylococcus aureus ATCC 25923 or ATCC 29213; test: MIC, broth dilution (CA-SFM); assay type: cell-based; settings: Staphylococcus aureus ATCC 25923 or ATCC 29213; mean (n = 3); read-out: MIC S. a
[3] = tested on: Acinetobacter baumannii ATCC19606; test: MIC, CO-ADD broth microdilution; assay type: cell-based; settings: mean (n = 2)
[4] = Cytotoxicity assay (resazurin); assay type: cell-based, human; settings: human; HEK293 cells; mean (n = 2); highest dose tested 32 μg/mL; read-out: Cytotoxicity (concentration of compound at 50% cytotoxicity, IC50)
[5] = tested on: MRSA ATCC 43300; test: MIC, CO-ADD broth microdilution; assay type: cell-based, Staphylococcus aureus; settings: Staphylococcus aureus; MRSA ATCC 43300; mean (n = 2); read-out: MIC MRSA
[6] = tested on: Escherichia coli ATCC 25922; test: MIC, CO-ADD broth microdilution; assay type: cell-based; settings: ATCC25922, mean (n = 2)
[7] = tested on: Klebsiella pneumoniae ATCC700603; test: MIC, CO-ADD broth microdilution; assay type: cell-based; settings: mean (n = 2)
[8] = tested on: human red blood cells; test: Hemolytic assay; assay type: cell-based; settings: mean (n = 2)
Procedure: Human whole blood was washed three times with 3 volumes of 0.9% NaCl and then resuspended in same to a concentration of 0.5 × 10^8 cells/mL, as determined by manual cell count in a Neubauer hemocytometer. The washed cells were then added to the 384-well compound-containing plates for a final volume of 50 μL. After a 10 min shake on a plate shaker, the plates were then incubated for 1 h at 37 °C. After incubation, the plates were centrifuged at 1000× g for 10 min to pellet cells and debris; 25 μL of the supernatant was then transferred to a polystyrene 384-well assay plate. Hemolysis was determined by measuring the supernatant absorbance at […] (OD405). The absorbance was measured using a Tecan M1000 Pro monochromator plate reader. HC10 and HC50 (concentration at 10% and 50% hemolysis, respectively) were calculated by curve fitting the inhibition values vs. log (concentration) using a sigmoidal dose–response function with variable fitting values for top, bottom and slope.

[9] = tested on: Cryptococcus neoformans ATCC208821; test: Antifungal MIC, CO-ADD; assay type: cell-based; settings: ATCC208821, Cryptococcus neoformans ATCC208821, mean (n = 2)
Procedure: (§1) For the antifungal assay, fungi strains were cultured for 3 days on YPD agar at 30 °C. A yeast suspension of 1 × 10^6 to 5 × 10^6 CFU/mL was prepared from five colonies. These stock suspensions were diluted with yeast nitrogen base (YNB) (Becton Dickinson, 233520) broth to a final concentration of 2.5 × 10^3 CFU/mL. […] Plates were covered and incubated at 35 °C for 36 h without shaking. C. albicans MICs were determined by measuring the absorbance at OD530. […] Fluconazole was used as a positive fungal inhibitor standard for C. albicans and C. neoformans. […] Quality control (QC) of the assays was determined by antimicrobial controls and Z’-factor (using positive and negative controls).

[10] = tested on: Candida albicans ATCC90028; test: Antifungal MIC, CO-ADD; assay type: cell-based; settings: mean (n = 2)
Procedure: as §1

Compound	MIC [1] [µM]	MIC [2] [µM]	MIC [3] [µM]	MIC [5] [µM]	MIC [6] [µM]	MIC [7] [µM]	MIC [9] [µM]	MIC [10] [µM]	IC50 at 20 h [4] [µM]	Hemolysis (HC10, concentration at 10% hemolytic activity) [8] [µM]
O=C(CCC(=O)NCCCc1ccccc1)NCCCNCCCCCCCCNCCCNC(=O)CCC(=O)NCCCc1ccccc1.O=C(O)C(F)(F)F.O=C(O)C(F)(F)F [Compound 14d, N^1,N^8-Bis(3-(4-oxo-4-((3-phenylpropyl)amino)butanamido)propyl)octane-1,8-diaminium 2,2,2-trifluoroacetate]	> 100	> 100	> 34.7	> 34.7	> 34.7	> 34.7	> 34.7	> 34.7	> 34.7	>34.7
O=C(CCC(=O)NCCCc1ccccc1)NCCCNCCCCNCCCNC(=O)CCC(=O)NCCCc1ccccc1.O=C(O)C(F)(F)F.O=C(O)C(F)(F)F [Compound 14a, N^1,N^4-Bis(3-(4-oxo-4-((3-phenylpropyl)amino)butanamido)propyl)butane-1,4-diaminium 2,2,2-trifluoroacetate]	> 200	100	> 37	> 37	> 37	> 37	> 37	> 37	> 37	>37
O=C(CCc1ccccc1)NCCCNCCCCCCCCNCCCNC(=O)CCc1ccccc1.O=C(O)C(F)(F)F.O=C(O)C(F)(F)F [Compound 13d, N^1,N^8-Bis(3-(3-phenylpropanamido)propyl)octane-1,8-diaminium 2,2,2-trifluoroacetate]	> 266	> 266	> 42.6	> 42.6	> 42.6	> 42.6	> 42.6	> 42.6	> 42.6	>42.6
O=C(CCc1ccccc1)NCCCNCCCCCCNCCCNC(=O)CCc1ccccc1.O=C(O)C(F)(F)F.O=C(O)C(F)(F)F [Compound 13b, N^1,N^6-Bis(3-(3-phenylpropanamido)propyl)hexane-1,6-diaminium 2,2,2-trifluoroacetate]	> 277	> 277	> 44.3	> 44.3	> 44.3	> 44.3	> 44.3	> 44.3	> 44.3	>44.3
O=C(CCc1ccccc1)NCCCNCCCCCCCNCCCNC(=O)CCc1ccccc1.O=C(O)C(F)(F)F.O=C(O)C(F)(F)F [Compound 13c, N^1,N^7-Bis(3-(3-phenylpropanamido)propyl)heptane-1,7-diaminium 2,2,2-trifluoroacetate]	> 271	> 271	> 43.4	> 43.4	> 43.4	> 43.4	> 43.4	> 43.4	> 43.4	>43.4

Now from value to molecule, other results behind:

MIC [1] [µM]	MIC [2] [µM]	MIC [3] [µM]	MIC [5] [µM]	MIC [6] [µM]	MIC [7] [µM]	MIC [9] [µM]	MIC [10] [µM]	Compound	IC50 at 20 h [4] [µM]	Hemolysis (HC10, concentration at 10% hemolytic activity) [8] [µM]
100	1.56	1.92	< 0.24	3.84	30.7	30.7	3.84	O=C(CC(c1ccccc1)(c1ccccc1)c1ccccc1)NCCCNCCCCCCCNCCCNC(=O)CC(c1ccccc1)(c1ccccc1)c1ccccc1.O=C(O)C(F)(F)F.O=C(O)C(F)(F)F [Compound 18c, N^1,N^7-Bis(3-(3,3,3-triphenylpropanamido)propyl)heptane-1,7-diaminium 2,2,2-trifluoroacetate]	13.2	3.12
480	24	> 30.2	≤ 0.24	> 30.2	> 30.2	30.2	> 30.2	O=C(CCC(=O)NCCC(c1ccccc1)c1ccccc1)NCCCNCCCCCCCNCCCNC(=O)CCC(=O)NCCC(c1ccccc1)c1ccccc1.O=C(O)C(F)(F)F.O=C(O)C(F)(F)F [Compound 16c, N^1,N^7-Bis(3-(4-((3,3-diphenylpropyl)amino)-4-oxobutanamido)propyl)heptane-1,7-diaminium 2,2,2-trifluoroacetate]	> 30.2	>30.2
300	6.25	7.79	< 0.24	15.6	> 31.2	< 0.24	15.6	O=C(NCCCNCCCCCCCCNCCCNC(=O)C(c1ccccc1)(c1ccccc1)c1ccccc1)C(c1ccccc1)(c1ccccc1)c1ccccc1.O=C(O)C(F)(F)F.O=C(O)C(F)(F)F [Compound 17d, N^1,N^8-Bis(3-(2,2,2-triphenylacetamido)propyl)octane-1,8-diaminium 2,2,2-trifluoroacetate]	≤ 0.243	0.719
200	1.56	< 0.23	< 0.23	> 29.5	> 29.5	< 0.23	< 0.23	O=C(CC(c1ccccc1)(c1ccccc1)c1ccccc1)NCCCNCCCCCCCCCCNCCCNC(=O)CC(c1ccccc1)(c1ccccc1)c1ccccc1.O=C(O)C(F)(F)F.O=C(O)C(F)(F)F [Compound 18e, N^1,N^10-Bis(3-(3,3,3-triphenylpropanamido)propyl)decane-1,10-diaminium 2,2,2-trifluoroacetate]	7.23	≤0.231
300	6.25	4	< 0.25	4	32	< 0.25	16	O=C(NCCCNCCCCCCNCCCNC(=O)C(c1ccccc1)(c1ccccc1)c1ccccc1)C(c1ccccc1)(c1ccccc1)c1ccccc1.O=C(O)C(F)(F)F.O=C(O)C(F)(F)F [Compound 17b, N^1,N^6-Bis(3-(2,2,2-triphenylacetamido)propyl)hexane-1,6-diaminium 2,2,2-trifluoroacetate]	≤ 0.25	6.27
50	1.56	7.8	< 0.24	0.97	31.2	31.2	7.79	O=C(CC(c1ccccc1)(c1ccccc1)c1ccccc1)NCCCNCCCCCCNCCCNC(=O)CC(c1ccccc1)(c1ccccc1)c1ccccc1.O=C(O)C(F)(F)F.O=C(O)C(F)(F)F [Compound 18b, N^1,N^6-Bis(3-(3,3,3-triphenylpropanamido)propyl)hexane-1,6-diaminium 2,2,2-trifluoroacetate]	15.7	0.985
100	6.25	> 36	≤ 0.28	2.3	> 36	≤ 0.28	> 36	O=C(CC(c1ccccc1)c1ccccc1)NCCCNCCCCCCCNCCCNC(=O)CC(c1ccccc1)c1ccccc1.O=C(O)C(F)(F)F.O=C(O)C(F)(F)F [Compound 15c, N^1,N^7-Bis(3-(3,3-diphenylpropanamido)propyl)heptane-1,7-diaminium 2,2,2-trifluoroacetate]	> 36	>36.0
300	6.25	> 29.5	< 0.23	> 29.5	> 29.5	< 0.23	< 0.23	O=C(NCCCNCCCCCCCCCCCCNCCCNC(=O)C(c1ccccc1)(c1ccccc1)c1ccccc1)C(c1ccccc1)(c1ccccc1)c1ccccc1.O=C(O)C(F)(F)F.O=C(O)C(F)(F)F [Compound 17f, N^1,N^12-Bis(3-(2,2,2-triphenylacetamido)propyl)dodecane-1,12-diaminium 2,2,2-trifluoroacetate]	≤ 0.231	≤0.231
